From patent US20070072897A1, “Phenylaminopropanol derivatives and methods of their use” (Wyeth, priority 2005, published 2007) come the findings set out here.

Assay [1] addresses T1, human 5-HT2A receptor (Homo sapiens, UniProt P28223).
T1 construct: expressed in transfected cells; host or cells: CHO
Kind of assay: 5-HT2A FLIPR assay (calcium response to DOI) in CHO cells. The conditions noted are these: for inhibition at 1 µM: CHO, read-out: 5-HT2A Percentage inhibition at 1 μM; for IC50: antagonist inhibition of 3 nM DOI stimulation, CHO cells, FLIPR. Type of assay: cell-based. The procedure, abridged: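 CHO cells loaded with calcium dye in HBSS/20 mM HEPES; FLIPR fluorescence recorded after compound addition (10^−10–10^−5 M) for 2 min to detect agonism, then after 3 nM DOI challenge for 5 min for antagonism. Data log transformed before analysis.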

Assay [2] addresses T2, human hNET (Homo sapiens, UniProt P23975).
T2 construct: expressed in transfected cells; host or cells: MDCK (MDCK-Net6)
Kind of assay: Norepinephrine (NE) uptake assay in MDCK-Net6 cells. Format: cell-based. The note with it: [3H]NE uptake; for inhibition at 1 µM: MDCK-Net6 cells, read-out: hNET Percentage inhibition at 1 μM; for EC50: MDCK-Net6 cells stably transfected with hNET.

Counter-ions that a name gives are not always drawn.

T1 sequence (P28223 whole entry): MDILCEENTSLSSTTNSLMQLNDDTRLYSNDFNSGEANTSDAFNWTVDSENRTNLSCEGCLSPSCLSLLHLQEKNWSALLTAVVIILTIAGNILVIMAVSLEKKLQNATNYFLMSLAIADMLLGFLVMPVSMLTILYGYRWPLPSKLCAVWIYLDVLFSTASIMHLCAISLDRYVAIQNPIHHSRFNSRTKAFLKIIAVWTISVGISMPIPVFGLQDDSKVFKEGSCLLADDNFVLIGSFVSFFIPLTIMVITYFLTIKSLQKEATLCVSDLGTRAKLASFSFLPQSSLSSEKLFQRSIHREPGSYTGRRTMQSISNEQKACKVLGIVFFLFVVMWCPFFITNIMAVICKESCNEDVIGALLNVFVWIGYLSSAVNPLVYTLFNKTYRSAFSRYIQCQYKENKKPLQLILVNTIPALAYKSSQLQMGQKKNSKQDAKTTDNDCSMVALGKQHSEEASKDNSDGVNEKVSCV
T2 sequence (P23975 whole entry): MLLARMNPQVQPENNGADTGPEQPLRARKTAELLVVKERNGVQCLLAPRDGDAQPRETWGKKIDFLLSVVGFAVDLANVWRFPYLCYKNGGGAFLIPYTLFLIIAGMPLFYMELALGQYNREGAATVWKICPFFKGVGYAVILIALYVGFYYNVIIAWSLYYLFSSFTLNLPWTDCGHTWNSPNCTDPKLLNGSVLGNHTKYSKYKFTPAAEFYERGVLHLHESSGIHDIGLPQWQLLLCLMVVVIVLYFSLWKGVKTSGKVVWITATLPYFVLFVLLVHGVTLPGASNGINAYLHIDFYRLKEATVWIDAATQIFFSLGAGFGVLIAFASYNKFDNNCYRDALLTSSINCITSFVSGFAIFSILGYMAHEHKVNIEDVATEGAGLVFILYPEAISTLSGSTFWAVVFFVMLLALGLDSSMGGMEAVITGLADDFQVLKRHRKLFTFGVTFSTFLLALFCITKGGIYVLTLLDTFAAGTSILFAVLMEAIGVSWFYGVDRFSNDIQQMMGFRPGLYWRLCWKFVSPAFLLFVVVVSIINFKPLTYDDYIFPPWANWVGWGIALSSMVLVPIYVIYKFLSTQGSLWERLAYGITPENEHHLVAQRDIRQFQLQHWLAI

By inhibition is commonly meant the percentage by which the read-out fell short of the control. For `O=C1N([C@@H](c2ccccc2)[C@H](O)CN2CCOCC2)c2ccc(F)cc2C12CCCCC2` [Example 104, 5′-fluoro-1′-[(1S,2R)-2-hydroxy-3-morpholin-4-yl-1-phenylpropyl]spiro[cyclohexane-1,3′-indol]-2′(1′H)-one hydrochloride], the inhibition at 1 µM in assay [1] was 22%; in assay [2] it was 13%.
The term IC50 denotes the concentration at which inhibition is half-maximal. For orientation: EC50 means the concentration needed to bring the measured effect to its halfway point. On to `CNC[C@@H](O)[C@H](c1ccccc1)N1C(=O)C2(CCCCC2)c2cc(F)ccc21` [Example 30, 5′-fluoro-1′-[(1S,2R)-2-hydroxy-3-(methylamino)-1-phenylpropyl]spiro[cyclohexane-1,3′-indol]-2′(1′H)-one hydrochloride], for which the half-maximal inhibitory concentration (IC50) in assay [1] was found to be 283 nM. The molecule further displayed an EC50 in assay [2] of 41 nM.
Consider `CC(C)NC[C@@H](O)[C@H](c1ccccc1)N1C(=O)C2(CCCCC2)c2cc(F)ccc21` [Example 101, 5′-fluoro-1′-[(1S,2R)-2-hydroxy-3-(isopropylamino)-1-phenylpropyl]spiro[cyclohexane-1,3′-indol]-2′(1′H)-one hydrochloride], for which the inhibition at 1 µM in assay [1] was 22%; in assay [2] it was 0%.
Regarding `O[C@H](CN1CCCCC1)[C@H](c1ccccc1)n1ccc2cc(OCc3ccccc3)ccc21` [Example 90, (1S,2R)-1-[5-(benzyloxy)-1H-indol-1-yl]-1-phenyl-3-piperidin-1-ylpropan-2-ol hydrochloride], the inhibition at 1 µM in assay [1] is 25%; in assay [2], 12%.
Take `CNC[C@@H](O)[C@H](c1ccccc1)n1ccc2ccc(-c3ccccc3)cc21` [Example 22, (1S,2R)-3-(methylamino)-1-phenyl-1-(6-phenyl-1H-indol-1-yl)propan-2-ol hydrochloride]: the inhibition at 1 µM in assay [1] is 16%. This molecule came in with an EC50 in assay [2] of 35 nM.
On to `CNC[C@@H](O)[C@H](c1ccccc1)N1C(=O)C2(CCCCC2)c2ccc(F)cc21` [Example 29, 6′-fluoro-1′-[(1S,2R)-2-hydroxy-3-(methylamino)-1-phenylpropyl]spiro[cyclohexane-1,3′-indol]-2′(1′H)-one hydrochloride], for which the 50% inhibitory concentration (IC50) in assay [1] was determined as 106 nM. In assay [2], this molecule yielded a 50% effective concentration (EC50) of 43 nM.
As to `CCN(CC)C[C@@H](O)[C@H](c1ccccc1)n1ccc2cc(OCc3ccccc3)ccc21` [Example 88, (1S,2R)-1-[5-(benzyloxy)-1H-indol-1-yl]-3-(diethylamino)-1-phenylpropan-2-ol hydrochloride], the inhibition at 1 µM in assay [1] is 33%; in assay [2], 21%.
`CNC[C@@H](O)[C@H](c1ccccc1)n1ccc2cc(OCc3ccc(C)cc3)ccc21` [Example 16, (1S,2R)-3-(methylamino)-1-{5-[(4-methylbenzyl)oxy]-1H-indol-1-yl}-1-phenylpropan-2-ol hydrochloride]: the half-maximal inhibitory concentration (IC50) in assay [1] amounted to 4120 nM. Moreover, the EC50 in assay [2] amounted to 37 nM.
Turning to `CNC[C@@H](O)[C@H](c1ccccc1)n1ccc2ccc(Oc3ccccc3)cc21` [Example 80, (1S,2R)-3-(methylamino)-1-(6-phenoxy-1H-indol-1-yl)-1-phenylpropan-2-ol hydrochloride], the figures for the inhibition at 1 µM in assay [1] and in assay [2] were 32% and 12%, respectively.
On the same counts, the results for `NC[C@@H](O)[C@H](c1ccccc1)N1C(=O)C2(CCCCC2)c2ccc(F)cc21` [Example 95, 1′-[(1S,2R)-3-amino-2-hydroxy-1-phenylpropyl]-6′-fluorospiro[cyclohexane-1,3′-indol]-2′(1′H)-one hydrochloride] are 44% and 7%.
On the same counts, the results for `CN1CCN(C[C@@H](O)[C@H](c2ccccc2)n2ccc3cc(OCc4ccccc4)ccc32)CC1` [Example 91, (1S,2R)-1-[5-(benzyloxy)-1H-indol-1-yl]-3-(4-methylpiperazin-1-yl)-1-phenylpropan-2-ol hydrochloride] are 29% and 22%.
For the molecule `CCNC[C@@H](O)[C@H](c1ccccc1)N1C(=O)C2(CCCCC2)c2cc(F)ccc21` [Example 100, 1′-[(1S,2R)-3-(ethylamino)-2-hydroxy-1-phenylpropyl]-5′-fluorospiro[cyclohexane-1,3′-indol]-2′(1′H)-one hydrochloride], the IC50 in assay [1] worked out at 378 nM. Further, the inhibition at 1 µM in assay [2] turned out to be 31%.
As for `CNC[C@@H](O)[C@H](c1ccccc1)n1ccc2cc(OCc3ccccc3C)ccc21` [Example 14, (1S,2R)-3-(methylamino)-1-{5-[(2-methylbenzyl)oxy]-1H-indol-1-yl}-1-phenylpropan-2-ol hydrochloride], the concentration for half-maximal inhibition (IC50) in assay [1] worked out at 442 nM. Further, it took 109 nM to reach a half-maximal effect in assay [2] (EC50).
Take `CNC[C@@H](O)[C@H](c1ccccc1)n1ccc2cc(NC(=O)C3CCCCC3)ccc21` [Example 77, N-{1-[(1S,2R)-2-Hydroxy-3-(methylamino)-1-phenylpropyl]-1H-indol-5-yl}cyclohexanecarboxamide hydrochloride]: the inhibition at 1 µM in assay [1] turned out to be 51%; in assay [2] it was 60%.
On to `CNC[C@@H](O)[C@H](c1ccccc1)n1ccc2c(-c3ccccc3)cccc21` [Example 21, (1S,2R)-3-(methylamino)-1-phenyl-1-(4-phenyl-1H-indol-1-yl)propan-2-ol hydrochloride], for which the inhibition at 1 µM came out at 27% in assay [1] and 56% in assay [2].
As for `CNC[C@@H](O)[C@H](c1ccccc1)N1CCc2cc(OCc3ccccc3)ccc21` [Example 26, (1S,2R)-1-[5-(benzyloxy)-2,3-dihydro-1H-indol-1-yl]-3-(methylamino)-1-phenylpropan-2-ol hydrochloride], the inhibition at 1 µM in assay [1] is 23%. In addition, the half-maximal effective concentration (EC50) in assay [2] was found to be 45 nM.
